Laboratory results published in PMC4965013, “Open Source Drug Discovery with the Malaria Box Compound Collection for Neglected Diseases and Beyond” (PLoS Pathogens, 2016).

Tests used:
P. falciparum = test: EC50 listed in S2 Table Metabolomics (used to set the concentration tested); format: cell-based; conditions: Plasmodium falciparum; EC50 used for Factor_XEC50 in metabolomics; read-out: EC50_nM
[1] = test system: P. falciparum 3D7 trophozoites; test: Metabolomic fingerprint profiling LC-MS; format: cell-based, Plasmodium falciparum; set-up: UDP-D-glucose / ADP-D-glucose: unit not given here
[2] = metabolite level change after treatment

EC50 (P. falciparum): 251 nM
Structure (SMILES): c1ccc2cc3c(Nc4ccc(N5CCOCC5)cc4)ccnc3cc2c1 [MMV006861]
Acetyllysine ([1]; S2 Table Metabolomics, metabolite Acetyllysine): 0.001155
N-acetyl-L-ornithine ([1]; S2 Table Metabolomics, metabolite N-acetyl-L-ornithine): 0.1202
N-carbamoyl-L-aspartate ([1]; S2 Table Metabolomics, metabolite N-carbamoyl-L-aspartate): 0.09461
NADPH ([1]; S2 Table Metabolomics, metabolite NADPH): 0.6132
dAMP ([1]; S2 Table Metabolomics, metabolite dAMP): -0.1929
dCMP ([1]; S2 Table Metabolomics, metabolite dCMP): 0.2768
dTDP ([1]; S2 Table Metabolomics, metabolite dTDP): 0.03656
dTMP ([1]; S2 Table Metabolomics, metabolite dTMP): 0.1106
dTTP ([1]; S2 Table Metabolomics, metabolite dTTP): -0.07535
dihydroorotate ([1]; S2 Table Metabolomics, metabolite dihydroorotate): 0.311
orotate ([1]; S2 Table Metabolomics, metabolite orotate): -0.21
DLH ([1]; S2 Table Metabolomics, peptide DLH): 0.09611
DLS/SDL/SID ([1]; S2 Table Metabolomics, peptide DLS/SDL/SID): 0.08895
PD ([1]; S2 Table Metabolomics, peptide PD): 0.008487
PEE ([1]; S2 Table Metabolomics, peptide PEE): 0.1992
PVNF ([1]; S2 Table Metabolomics, peptide PVNF): -0.07307
3-phosphoglycerate ([1]; metabolite 3-phosphoglycerate, S2 Table Metabolomics): -0.2621
ADP-D-glucose ([1]; metabolite ADP-D-glucose, S2 Table Metabolomics): 0.04555
ATP ([1]; metabolite ATP, S2 Table Metabolomics): 0.1894
CDP ([1]; metabolite CDP, S2 Table Metabolomics, change in metabolite level after compound treatment): 0.09878
D-sedoheptulose-1/7-phosphate ([1]; metabolite D-sedoheptulose-1/7-phosphate, S2 Table Metabolomics, change in metabolite level after compound treatment): 0.1691
FAD ([1]; metabolite FAD, S2 Table Metabolomics): 0.1498
GMP ([1]; metabolite GMP, S2 Table Metabolomics, change in metabolite level after compound treatment): 0.6017
NAD+ ([1]; metabolite NAD+, S2 Table Metabolomics): 0.04038
NADP+ ([1]; metabolite NADP+, S2 Table Metabolomics): 0.01746
Octoluse Bisphosphate ([1]; metabolite Octoluse Bisphosphate, S2 Table Metabolomics, change in metabolite level after compound treatment): 0.06917
Pyroglutamic acid ([1]; metabolite Pyroglutamic acid, S2 Table Metabolomics): 0.7013
UDP-D-glucose ([1]; metabolite UDP-D-glucose, S2 Table Metabolomics): -0.003086
UDP-D-glucuronate ([1]; metabolite UDP-D-glucuronate, S2 Table Metabolomics): -0.03493
UDP-N-acetyl-glucosamine ([1]; metabolite UDP-N-acetyl-glucosamine, S2 Table Metabolomics): 0.008052
UDP ([1]; metabolite UDP, S2 Table Metabolomics, change in metabolite level after compound treatment): 0.1461
UMP ([1]; metabolite UMP, S2 Table Metabolomics, change in metabolite level after compound treatment): -0.13
UTP ([1]; metabolite UTP, S2 Table Metabolomics, change in metabolite level after compound treatment): -0.06454
a-ketoglutarate ([1]; metabolite a-ketoglutarate, S2 Table Metabolomics): -0.4694
citrate/isocitrate ([1]; metabolite citrate/isocitrate, S2 Table Metabolomics, change in metabolite level after compound treatment): -0.2815
cytidine ([1]; metabolite cytidine, S2 Table Metabolomics): -0.002725
dATP ([1]; metabolite dATP, S2 Table Metabolomics): -0.03123
dGMP/AMP ([1]; metabolite dGMP/AMP, S2 Table Metabolomics, change in metabolite level after compound treatment): -0.0595
fumarate ([1]; metabolite fumarate, S2 Table Metabolomics, change in metabolite level after compound treatment): -0.1611
glucose-1/6-phosphate ([1]; metabolite glucose-1/6-phosphate, S2 Table Metabolomics, change in metabolite level after compound treatment): 0.03738
glycerate ([1]; metabolite glycerate, S2 Table Metabolomics, change in metabolite level after compound treatment): -0.6693
guanine ([1]; metabolite guanine, S2 Table Metabolomics, change in metabolite level after compound treatment): -0.08848
guanosine ([1]; metabolite guanosine, S2 Table Metabolomics, change in metabolite level after compound treatment): -0.211
hypoxanthine ([1]; metabolite hypoxanthine, S2 Table Metabolomics): -0.05987
indole ([1]; metabolite indole, S2 Table Metabolomics): -0.08261
inosine ([1]; metabolite inosine, S2 Table Metabolomics, change in metabolite level after compound treatment): -0.2117
2_3-Diphosphoglyceric acid [1, 2]: 0.06563
4-phosphopantothenate [1, 2]: -0.011
6-phospho-D-gluconate [1, 2]: -0.02789
FMN [1, 2]: 0.1069
IMP [1, 2]: -0.3519
Pyrophosphate [1, 2]: 0.04971
Sedoheptoluse bisphosphate [1, 2]: 0.0295
cyclic-AMP [1, 2]: 0.009655
glutathione disulfide [1, 2]: -0.09687
lactate [1, 2]: -0.2479
myo-inositol [1, 2]: -0.35
nicotinate ([1]; metabolite nicotinate, S2 Table Metabolomics): -0.2896
ornithine ([1]; metabolite ornithine, S2 Table Metabolomics): -0.2133
phosphoenolpyruvate ([1]; metabolite phosphoenolpyruvate, S2 Table Metabolomics): -0.1566
pyruvate ([1]; metabolite pyruvate, S2 Table Metabolomics, change in metabolite level after compound treatment): -0.275
ribose-phosphate ([1]; metabolite ribose-phosphate, S2 Table Metabolomics): -0.01288
sarcosine/alanine ([1]; metabolite sarcosine/alanine, S2 Table Metabolomics, change in metabolite level after compound treatment): -0.00437
sn-glycerol-3-phosphate ([1]; metabolite sn-glycerol-3-phosphate, S2 Table Metabolomics): -0.1431
succinate/methylmalonic acid ([1]; metabolite succinate/methylmalonic acid, S2 Table Metabolomics, change in metabolite level after compound treatment): -0.003665
uridine ([1]; metabolite uridine, S2 Table Metabolomics, change in metabolite level after compound treatment): -0.2532
xanthosine ([1]; metabolite xanthosine, S2 Table Metabolomics, change in metabolite level after compound treatment): -0.2406
